Read-outs that look alike come from different tables or passages of the source.
Legend:
[1] = Compound cytotoxicity (CC50), XTT-based colorimetric assay; assay type: cell-based; settings: human; uninfected MT2 cells, day 4, XTT assay
Procedure: Compound cytotoxicity and the corresponding CC50 values were determined using the same protocol as described in the antiviral assay except that uninfected cells were used. Cytotoxicity was assessed on day 4 in uninfected MT2 cells by using a XTT (2,3-bis[2-Methoxy-4-nitro-5-sulfophenyl]-2H-tetrazolium-5-carboxyanilide inner salt)-based colorimetric assay (Sigma-Aldrich, St Louis, Mo.).

[2] = system: recombinant NL4-3 virus (nef section replaced with Renilla luciferase gene) in MT-2 cells; test: whole plant or invertebrate; assay type: cell-based, HIV; settings: NL43, luciferase activity in MT-2 cells infected 4-5 days with recombinant NL4-3 virus
Excerpt: A recombinant NL4-3 proviral clone, in which a section of the nef gene was replaced with the Renilla luciferase gene, was used to make the reference virus used in these studies.
Supernatent was harvested after 2-3 days and the amount of virus present was titered in MT-2 cells using luciferase enzyme activity as a marker by measuring luciferase enzyme activity. Luciferase was quantitated using the EnduRen Live Cell Substrate from Promega (Madison, Wis.). Antiviral activities of compounds toward the recombinant virus were quantified by measuring luciferase activity in MT-2 cells infected for 4-5 days with the recombinant virus in the presence of serial dilutions of the compound.

With CCOc1cccc(-n2ccnc2[C@H](Cc2ccccc2)NC(=O)NS(=O)(=O)c2ccccc2C)c1 [Example 24, (S)-N-((1-(1-(3-ethoxyphenyl)-1H-imidazol-2-yl)-2-phenylethyl)carbamoyl)-2-methylbenzenesulfonamide] the CC50 at 4 day [1] was over 100 µM, the EC50 ([2]; read-out: Activity) was 100 to 1000 nM and the EC50 ([2]; read-out: EC50) was 600 nM.

In the case of CCCOc1ccc(-n2ccnc2[C@H](Cc2ccccc2)NC(=O)NS(=O)(=O)c2ccccc2C)cc1Cl [Example 25, (S)-N-((1-(1-(3-chloro-4-propoxyphenyl)-1H-imidazol-2-yl)-2-phenylethyl)carbamoyl)-2-methylbenzenesulfonamide], the CC50 at 4 day [1] is reported as 50 µM and the EC50 ([2]; read-out: Activity) is reported as under 100 nM.

Work on CCOc1ccc(-n2ccnc2[C@H](Cc2ccccc2)NC(=O)NS(=O)(=O)c2ccccc2C)cc1Cl [Example 26, (S)-N-((1-(1-(3-chloro-4-ethoxyphenyl)-1H-imidazol-2-yl)-2-phenylethyl)carbamoyl)-2-methylbenzenesulfonamide] yielded a CC50 at 4 day [1] of over 100 µM and an EC50 ([2]; read-out: Activity) of under 100 nM.

In the case of Cc1ccccc1S(=O)(=O)NC(=O)N[C@@H](Cc1ccccc1)c1nccn1-c1ccc2c(c1)OCO2 [Example 27, (S)-N-((1-(1-(benzo[d][1,3]dioxol-5-yl)-1H-imidazol-2-yl)-2-phenylethyl)carbamoyl)-2-methylbenzenesulfonamide], the CC50 at 4 day [1] is reported as over 100 µM, the EC50 ([2]; read-out: Activity) is reported as under 100 nM and the EC50 ([2]; read-out: EC50) is reported as 70 nM.

With Cc1ccccc1-n1ccnc1[C@H](Cc1ccccc1)NC(=O)NS(=O)(=O)c1ccccc1C [Example 28, (S)-2-methyl-N-((2-phenyl-1-(1-(o-tolyl)-1H-imidazol-2-yl)ethyl)carbamoyl)benzenesulfonamide] the CC50 at 4 day [1] was over 100 µM and the EC50 ([2]; read-out: Activity) was over 1000 nM.

Work on Cc1ccccc1S(=O)(=O)NC(=O)N[C@@H](Cc1ccccc1)c1nccn1-c1ccc(OCc2ccccc2)cc1 [Example 30, (S)-N-((1-(1-(4-(benzyloxy)phenyl)-1H-imidazol-2-yl)-2-phenylethyl)carbamoyl)-2-methylbenzenesulfonamide] yielded a CC50 at 4 day [1] of over 100 µM, an EC50 ([2]; read-out: Activity) of 100 to 1000 nM and an EC50 ([2]; read-out: EC50) of 280 nM.

With Cc1ccccc1S(=O)(=O)NC(=O)N[C@@H](Cc1ccccc1)c1nccn1-c1ccccc1 [Example 31, (S)-2-methyl-N-((2-phenyl-1-(1-phenyl-1H-imidazol-2-yl)ethyl)carbamoyl)benzenesulfonamide] the CC50 at 4 day [1] was over 100 µM and the EC50 ([2]; read-out: Activity) was 100 to 1000 nM.

Molecule Cc1ccc(-n2ccnc2[C@H](Cc2ccccc2)NC(=O)NS(=O)(=O)c2ccccc2C)cc1Cl [Example 32, (S)-N-((1-(1-(3-chloro-4-methylphenyl)-1H-imidazol-2-yl)-2-phenylethyl)carbamoyl)-2-methylbenzenesulfonamide] has a CC50 at 4 day [1] of over 100 µM and an EC50 ([2]; read-out: Activity) of under 100 nM.

For Cc1ccccc1S(=O)(=O)NC(=O)N[C@@H](Cc1ccccc1)c1nccn1-c1ccc([N+](=O)[O-])cc1 [Example 33, (S)-2-methyl-N-((1-(1-(4-nitrophenyl)-1H-imidazol-2-yl)-2-phenylethyl)carbamoyl)benzenesulfonamide], the CC50 at 4 day [1] was over 100 µM, the EC50 ([2]; read-out: Activity) was 100 to 1000 nM and the EC50 ([2]; read-out: EC50) was 190 nM.

Molecule CCOC(=O)Nc1ccc(-n2ccnc2[C@H](Cc2ccccc2)NC(=O)NS(=O)(=O)c2ccccc2C)cc1 [Example 34, (S)-ethyl (4-(2-(2-phenyl-1-(3-(o-tolylsulfonyl)ureido)ethyl)-1H-imidazol-1-yl)phenyl)carbamate] has a CC50 at 4 day [1] of over 100 µM and an EC50 ([2]; read-out: Activity) of under 100 nM.

Work on CC(=O)Nc1ccc(-n2ccnc2[C@H](Cc2ccccc2)NC(=O)NS(=O)(=O)c2ccccc2C)cc1 [Example 35, (S)-N-(4-(2-(2-phenyl-1-(3-(o-tolylsulfonyl)ureido)ethyl)-1H-imidazol-1-yl)phenyl)acetamide] yielded a CC50 at 4 day [1] of over 33 µM and an EC50 ([2]; read-out: Activity) of 100 to 1000 nM.

COC(=O)Nc1ccc(-n2ccnc2[C@H](Cc2ccccc2)NC(=O)NS(=O)(=O)c2ccccc2Cl)cc1 [Example 36, (S)-methyl (4-(2-(1-(3-((2-chlorophenyl)sulfonyl)ureido)-2-phenylethyl)-1H-imidazol-1-yl)phenyl)carbamate] gave a CC50 at 4 day [1] of over 100 µM, an EC50 ([2]; read-out: Activity) of under 100 nM and an EC50 ([2]; read-out: EC50) of 60 nM.

COC(=O)Nc1ccc(-n2ccnc2[C@H](Cc2ccccc2)NC(=O)NS(=O)(=O)c2ccccc2)cc1 [Example 37, (S)-methyl (4-(2-(2-phenyl-1-(3-(phenylsulfonyl)ureido)ethyl)-1H-imidazol-1-yl)phenyl)carbamate] gave a CC50 at 4 day [1] of over 33 µM and an EC50 ([2]; read-out: Activity) of 100 to 1000 nM.

With COC(=O)Nc1ccc(-n2ccnc2[C@H](Cc2ccccc2)NC(=O)NS(=O)(=O)c2ccc(C)cc2)cc1 [Example 38, (S)-methyl (4-(2-(2-phenyl-1-(3-tosylureido)ethyl)-1H-imidazol-1-yl)phenyl)carbamate] the CC50 at 4 day [1] was over 100 µM and the EC50 ([2]; read-out: Activity) was 100 to 1000 nM.

Molecule COC(=O)Nc1ccc(-n2ccnc2[C@@H](Cc2ccccc2)NC(=O)NS(=O)(=O)c2ccccc2C)cc1 [Example 39] has a CC50 at 4 day [1] of over 11 µM, an EC50 ([2]; read-out: Activity) of over 1000 nM and an EC50 ([2]; read-out: EC50) of 1420 nM.

COc1ccc(Cn2ccnc2[C@H](Cc2ccccc2)NC(=O)NS(=O)(=O)c2ccccc2C)cc1 [Example 40, (S)-N-((1-(1-(4-methoxybenzyl)-1H-imidazol-2-yl)-2-phenylethyl)carbamoyl)-2-methylbenzenesulfonamide] gave a CC50 at 4 day [1] of over 33 µM and an EC50 ([2]; read-out: Activity) of 100 to 1000 nM.

Molecule COc1ccc(Cn2ccnc2[C@H](Cc2ccccc2)NC(=O)NS(=O)(=O)c2ccccc2Cl)cc1 [Example 41, (S)-2-chloro-N-((1-(1-(4-methoxybenzyl)-1H-imidazol-2-yl)-2-phenylethyl)carbamoyl)benzenesulfonamide] has a CC50 at 4 day [1] of over 33 µM and an EC50 ([2]; read-out: Activity) of 100 to 1000 nM.

With Cc1ccccc1S(=O)(=O)NC(=O)N[C@@H](Cc1ccccc1)c1nccn1-c1ccc(N)cc1 [Example 42, (S)-N-((1-(1-(4-aminophenyl)-1H-imidazol-2-yl)-2-phenylethyl)carbamoyl)-2-methylbenzenesulfonamide] the CC50 at 4 day [1] was over 100 µM, the EC50 ([2]; read-out: Activity) was under 100 nM and the EC50 ([2]; read-out: EC50) was 40 nM.

In the case of COC(=O)Nc1ccc(-n2ccnc2[C@H](Cc2ccccc2)NC(=O)NS(=O)(=O)c2ccccc2OC)cc1 [Example 44, (S)-methyl (4-(2-(1-(3-((2-methoxyphenyl)sulfonyl)ureido)-2-phenylethyl)-1H-imidazol-1-yl)phenyl)carbamate], the CC50 at 4 day [1] is reported as over 100 µM and the EC50 ([2]; read-out: Activity) is reported as under 100 nM.

With COC(=O)Nc1ccc(-n2ccnc2[C@H](Cc2ccccc2)NC(=O)NS(=O)(=O)c2ccccc2OC(F)(F)F)cc1 [Example 45, (S)-methyl (4-(2-(2-phenyl-1-(3-((2-(trifluoromethoxy)phenyl)sulfonyl)ureido)ethyl)-1H-imidazol-1-yl)phenyl)carbamate] the CC50 at 4 day [1] was over 100 µM, the EC50 ([2]; read-out: Activity) was under 100 nM and the EC50 ([2]; read-out: EC50) was 60 nM.

COC(=O)Nc1ccc(-n2ccnc2[C@H](Cc2ccccc2)NC(=O)NS(=O)(=O)c2ccc(C)s2)cc1 [Example 46, (S)-methyl (4-(2-(1-(3-((5-methylthiophen-2-yl)sulfonyl)ureido)-2-phenylethyl)-1H-imidazol-1-yl)phenyl)carbamate] showed a CC50 at 4 day [1] of over 100 µM and an EC50 ([2]; read-out: Activity) of 100 to 1000 nM.

COC(=O)Nc1ccc(-n2ccnc2[C@H](Cc2ccccc2)NC(=O)NS(=O)(=O)Cc2ccccc2)cc1 [Example 47, (S)-methyl (4-(2-(1-(3-(benzylsulfonyl)ureido)-2-phenylethyl)-1H-imidazol-1-yl)phenyl)carbamate] showed a CC50 at 4 day [1] of over 33 µM and an EC50 ([2]; read-out: Activity) of 100 to 1000 nM.

Source: patent publication US9855230B2 (ViiV Healthcare UK (No. 5) Limited, priority 2014, dated 2018)
